Experimental data as given in patent US20250212891A1, “MIXTURES AND COMPOSITIONS COMPRISING PAENIBACILLUS STRAINS OR FUSARICIDINS AND CHEMICAL PESTICIDES” (BASF SE, priority 2016, published 2025).
Where two headings read alike, the source gives them in different places. Positions of bridges follow the written chain, without caps; N, C: chain ends. Non-standard residues stand in square brackets, D forms with d. Residues, ends and D or L forms follow the SMILES beside them. ξ: configuration not given here. *: point of attachment. Pentadecanoyl(3ξ-OH,15-Gua) = N=C(N)NCCCCCCCCCCCCC(O)CC(=O)*; d(aThr) = C[C@@H](O)[C@@H](N)C(=O)O; Thr(3ξ) = CC(O)[C@H](N)C(=O)O; ξY = NC(Cc1ccc(O)cc1)C(=O)O

Experiments:
Botrytis cinerea = test: Microtiterplate test against grey mold (Botrci); format: cell-based
Pyricularia oryzae = format: cell-based; conditions: Pyrior, single active, 7 days after inoculation
Septoria tritici = test: Microtiterplate test against leaf blotch on wheat (Septtr); format: cell-based
Alternaria solani = test: Microtiterplate test against early blight (Alteso); format: cell-based
Leptosphaeria nodorum = test: Microtiterplate test against wheat leaf spots (Leptno); format: cell-based
[1] = tested on: Botrytis cinerea (BOTRCI); test: Glasshouse test, grey mold on pepper, protective application; format: in vivo; conditions: in planta
[2] = tested on: Alternaria solani (ALTESO); test: Glasshouse test, early blight on tomato, protective application; format: in vivo; conditions: in planta, 36 ppm
[3] = tested on: Phakopsora pachyrhizi (PHAKPA); test: Glasshouse test, soybean rust on soybean, protective application; format: in vivo; conditions: in planta, 360 ppm
[4] = tested on: Botrytis cinerea (BOTRCI); test: Fungal growth assay in 96 well plates; format: cell-based; conditions: evaluation 7 days after inoculation, OD 600 nm, about 18° C., read-out: Fungal growth inhibition (IC50 [μM]) BOTRCI (7 d)
[5] = tested on: Alternaria solani (ALTESO); test: Fungal growth assay in 96 well plates; format: cell-based
[6] = tested on: Phytophthora infestans (PHYTIN); format: in vivo; conditions: protective application, 7.2 ppm
[7] = tested on: Fusarium graminearum (GIBBZE); format: in vivo; conditions: protective application, 360 ppm
[8] = tested on: clinically relevant fungi and gram-positive bacteria such a Staphylococcus aureus; conditions: ChemMedChem 7, 871-882, 2012; cited from earlier work
[9] = tested on: Septoria tritici (SEPTTR); format: in vivo; conditions: protective application, 360 ppm
[10] = Alternaria solani, 72 h, evaluation 3 days after inoculation, OD 600 nm, about 18° C., read-out: Fungal growth inhibition (IC50 [μM]) ALTESO (3 d)
[11] = Alternaria solani, 168 h, evaluation 7 days after inoculation, OD 600 nm, about 18° C., read-out: Fungal growth inhibition (IC50 [μM]) ALTESO (7 d)
[12] = Alternaria solani, summary over ALTESO and BOTRCI of Tab. 18, read-out: IC50 values (antifungal efficacy, Tab. 18)
[13] = Botrytis cinerea, 168 h, 1 ppm, read-out: Observed efficacy
[14] = Botrytis cinerea, 168 h, 0.016 ppm, read-out: Observed efficacy
[15] = Botrytis cinerea, 168 h, read-out: Observed efficacy
[16] = evaluation 3 days after inoculation, OD 600 nm, about 18° C., read-out: Fungal growth inhibition (IC50 [μM]) ALTESO (3 d)
[17] = evaluation 7 days after inoculation, OD 600 nm, about 18° C., read-out: Fungal growth inhibition (IC50 [μM]) ALTESO (7 d)
[18] = Botrytis cinerea, 168 h, 0.063 ppm, read-out: Observed efficacy

Compound: Cn1cc(C(=O)Nc2cccc3c2[C@@H]2CC[C@H]3C2=C(Cl)Cl)c(C(F)F)n1 (racemic) [Benzovindiflupyr, benzovindiflupyr, reference compound]
- Observed efficacy (Botrytis cinerea; 0.063 ppm): 17%
- Observed efficacy (Pyricularia oryzae; 0.016 ppm): 72%
- Observed efficacy (Septoria tritici; 0.25 ppm): 77%
- Observed efficacy (Alternaria solani; 0.016 ppm): 12%
- Observed efficacy (Leptosphaeria nodorum; 0.25 ppm): 26%

Compound: prohexadione-calcium [Prohexadion-ca]
- Observed efficacy (Pyricularia oryzae; 4 ppm): 4%

Compound: CCC(C)C1NC(=O)C(NC(=O)CC(O)CCCCCCCCCCCCNC(=N)N)C(C)OC(=O)C(C)NC(=O)C(CC(N)=O)NC(=O)C(C(C)O)NC(=O)C(Cc2ccc(O)cc2)NC1=O (centres unmarked) [Compound 1A, fusaricidin 1A] ({Pentadecanoyl(3ξ-OH,15-Gua)}-TIYTNA; ester 1-C; configuration not given here)
- % efficacy (% fungal attack) BOTRCI ([1]; 36 ppm): 97%
- % efficacy (% fungal attack) BOTRCI ([1]; 360 ppm): 99%
- % efficacy (% fungal attack) ALTESO [2]: 74%
- % efficacy (% fungal attack) PHAKPA [3]: 95%
- IC50 ([4]; Botrytis cinerea, 168 h): 0.3 µM
- IC50 [5, 10]: 0.6 µM
- IC50 [5, 11]: 0.5 µM
- IC50 [5, 12]: 0.4 to 0.6 µM
- inhibition of growth at 1 ppm (Botrytis cinerea; [13]): 40%
- Observed efficacy (Pyricularia oryzae; 0.004 ppm): 3%
- Observed efficacy (Pyricularia oryzae; 1 ppm): 7%
- Observed efficacy (Septoria tritici; 0.016 ppm): 9%
- Observed efficacy (Septoria tritici; 0.063 ppm): 8%
- Observed efficacy (Septoria tritici; 0.25 ppm): 12%
- Observed efficacy (Alternaria solani; 0.016 ppm): 1%
- Observed efficacy (Alternaria solani; 0.063 ppm): 7%
- Observed efficacy (Alternaria solani; 0.25 ppm): 10%
- Observed efficacy (Alternaria solani; 1 ppm): 58%
- Observed efficacy (Leptosphaeria nodorum; 1 ppm): 19%

Compound: COC(=O)N(OC)c1ccccc1COc1ccn(-c2ccc(Cl)cc2)n1 [Pyraclostrobin, pyraclostrobin, reference compound]
- inhibition of growth at 0.001 ppm (Botrytis cinerea; Botrytis cinerea, 168 h, 0.001 ppm, read-out: Observed efficacy): 4%
- inhibition of growth at 0.016 ppm (Botrytis cinerea; [14]): 5%
- inhibition of growth at 0.25 ppm (Botrytis cinerea; [15]): 10%
- Observed efficacy (Pyricularia oryzae; 0.001 ppm): 28%
- Observed efficacy (Pyricularia oryzae; 0.004 ppm): 44%
- Observed efficacy (Septoria tritici; 0.004 ppm): 12%
- Observed efficacy (Leptosphaeria nodorum; 0.001 ppm): 3%
- Observed efficacy (Leptosphaeria nodorum; 0.016 ppm): 11%

Compound: CC(C)[C@@H]1NC(=O)[C@@H](C(C)C)NC(=O)[C@@H](NC(=O)CC(O)CCCCCCCCCCCCN=C(N)N)[C@@H](C)OC(=O)[C@@H](C)NC(=O)[C@@H](CC(N)=O)NC(=O)[C@@H]([C@@H](C)O)NC1=O (some centres unmarked) [Fusaricidin A, fusaricidin A] ({Pentadecanoyl(3ξ-OH,15-Gua)}-T[dV]V[d(aThr)][dN][dA]; ester 1-C)
- % efficacy (% fungal attack), late blight on tomato caused by Phytophthora infestans [6]: 15%
- % efficacy (% fungal attack), head blight on wheat caused by Fusarium graminearum [7]: 31%
- IC50 [4]: 0.5 µM
- IC50 [5, 16]: 1.3 µM
- IC50 [5, 17]: 0.7 µM
- MIC value range [8]: 0.78 to 3.12 µg/mL

Compound: Cc1cc(C)nc(Nc2ccccc2)n1 [Pyrimethanil]
- inhibition of growth at 0.063 ppm (Botrytis cinerea; [18]): 11%
- inhibition of growth at 4 ppm (Botrytis cinerea; Botrytis cinerea, 168 h, 4 ppm, read-out: Observed efficacy): 45%
- Observed efficacy (Leptosphaeria nodorum; 0.063 ppm): 1%

Compound: CC(O)(Cn1cncn1)c1ccc(Oc2ccc(Cl)cc2)cc1C(F)(F)F (centres unmarked) [Mefentrifluconazol, 2-[4-(4-chlorophenoxy)-2-(trifluoromethyl)phenyl]-1-(1H-1,2,4-triazol-1-yl) propan-2-ol, reference compound]
- inhibition of growth at 0.016 ppm (Botrytis cinerea; [14]): 5%
- Observed efficacy (Septoria tritici; 0.001 ppm): 21%
- Observed efficacy (Alternaria solani; 0.016 ppm): 12%
- Observed efficacy (Leptosphaeria nodorum; 0.001 ppm): 0%
- Observed efficacy (Leptosphaeria nodorum; 0.016 ppm): 29%

Compound: CC1OC(=O)[C@@H](C)NC(=O)[C@@H](CCC(N)=O)NC(=O)[C@@H]([C@H](C)O)NC(=O)C(Cc2ccc(O)cc2)NC(=O)[C@@H](C(C)C)NC(=O)[C@H]1NC(=O)CC(O)CCCCCCCCCCCCN=C(N)N (some centres unmarked) [Fusaricidin D, fusaricidin D] ({Pentadecanoyl(3ξ-OH,15-Gua)}-[Thr(3ξ)][dV][ξY][dT][dQ][dA]; ester 1-C)
- % efficacy (% fungal attack), late blight on tomato caused by Phytophthora infestans [6]: 0%
- % efficacy (% fungal attack), head blight on wheat caused by Septoria tritici [9]: 50%
- IC50 [4]: 0.5 µM
- IC50 [5, 16]: 1.1 µM
- IC50 [5, 17]: 0.6 µM

Compound: COCC(=O)N(c1c(C)cccc1C)[C@H](C)C(=O)OC [Mefenoxam]
- Observed efficacy (Botrytis cinerea; 0.063 ppm): 5%
- Observed efficacy (Alternaria solani; 1 ppm): 18%

Compound: CNC(=O)/C(=N/OC)c1ccccc1COc1cc(C)ccc1C [Dimoxystrobin]
- Observed efficacy (Botrytis cinerea; 0.063 ppm): 0%
- Observed efficacy (Botrytis cinerea; 1 ppm): 23%
- Observed efficacy (Septoria tritici; 0.063 ppm): 73%
- Observed efficacy (Alternaria solani; 0.063 ppm): 36%

Compound: CO/C=C(/C(=O)OC)c1ccccc1Oc1cc(Oc2ccccc2C#N)ncn1 [Azoxystrobin]
- Observed efficacy (Septoria tritici; 0.063 ppm): 60%
- Observed efficacy (Alternaria solani; 0.016 ppm): 43%
- Observed efficacy (Leptosphaeria nodorum; 0.25 ppm): 59%

Compound: Cn1cc(C(=O)Nc2ccccc2-c2cc(F)c(F)c(F)c2)c(C(F)F)n1 [Fluxapyroxad]
- Observed efficacy (Botrytis cinerea; 0.016 ppm): 1%

Compound: CC1COC(Cn2cncn2)(c2ccc(Oc3ccc(Cl)cc3)cc2Cl)O1 (centres unmarked) [Difenoconazol]
- Observed efficacy (Alternaria solani; 0.25 ppm): 67%

Compound: CC1(C)CCC(Cc2ccc(Cl)cc2)C1(O)Cn1cncn1 (centres unmarked) [Metconazol, metconazole, reference compound]
- inhibition of growth at 0.004 ppm (Botrytis cinerea; Botrytis cinerea, 168 h, 0.004 ppm, read-out: Observed efficacy): 1%
- inhibition of growth at 0.016 ppm (Botrytis cinerea; [14]): 9%
- inhibition of growth at 0.063 ppm (Botrytis cinerea; [18]): 29%
- Observed efficacy (Pyricularia oryzae; 0.25 ppm): 23%
- Observed efficacy (Septoria tritici; 0.016 ppm): 25%
- Observed efficacy (Alternaria solani; 0.063 ppm): 45%
- Observed efficacy (Leptosphaeria nodorum; 0.016 ppm): 3%
- Observed efficacy (Leptosphaeria nodorum; 0.063 ppm): 27%

Compound: CC1(C)CCC(=Cc2ccc(Cl)cc2)C1(O)Cn1cncn1 (centres unmarked) [Triticonazol, triticonazole, reference compound]
- inhibition of growth at 0.25 ppm (Botrytis cinerea; [15]): 19%
- Observed efficacy (Pyricularia oryzae; 4 ppm): 39%

Compound: CC(C)[C@@H]1NC(=O)[C@@H](C(C)C)NC(=O)[C@@H](NC(=O)CC(O)CCCCCCCCCCCCN=C(N)N)C(C)OC(=O)[C@@H](C)NC(=O)[C@@H](CCC(N)=O)NC(=O)[C@@H]([C@H](C)O)NC1=O (stereo in doubt) [Fusaricidin B, fusaricidin B]
- % efficacy (% fungal attack), late blight on tomato caused by Phytophthora infestans [6]: 4%
- % efficacy (% fungal attack), head blight on wheat caused by Fusarium graminearum [7]: 0%
- IC50 [4]: 0.6 µM
- IC50 [5, 16]: 1.1 µM
- IC50 [5, 17]: 0.6 µM

Compound: CCC(C)C1NC(=O)C(NC(=O)CC(O)CCCCCCCCCCCCNC(=N)N)C(C)OC(=O)C(C)NC(=O)C(CCC(N)=O)NC(=O)C(C(C)O)NC(=O)C(Cc2ccc(O)cc2)NC1=O (centres unmarked) [Compound 1B, fusaricidin 1B] ({Pentadecanoyl(3ξ-OH,15-Gua)}-TIYTQA; ester 1-C; configuration not given here)
- % efficacy (% fungal attack) BOTRCI ([1]; 36 ppm): 97%
- % efficacy (% fungal attack) BOTRCI ([1]; 360 ppm): 100%
- % efficacy (% fungal attack) PHAKPA [3]: 97%
- IC50 ([4]; Botrytis cinerea, 168 h): 0.4 µM
- IC50 [5, 10]: 0.6 µM
- IC50 [5, 11]: 0.4 µM
- IC50 [5, 12]: 0.4 to 0.6 µM
- inhibition of growth at 0.25 ppm (Botrytis cinerea; [15]): 4%
- inhibition of growth at 1 ppm (Botrytis cinerea; [13]): 50%
- Observed efficacy (Pyricularia oryzae; 0.016 ppm): 2%
- Observed efficacy (Pyricularia oryzae; 0.063 ppm): 3%
- Observed efficacy (Pyricularia oryzae; 0.25 ppm): 3%
- Observed efficacy (Pyricularia oryzae; 1 ppm): 12%
- Observed efficacy (Septoria tritici; 0.016 ppm): 20%
- Observed efficacy (Septoria tritici; 0.063 ppm): 22%
- Observed efficacy (Septoria tritici; 0.25 ppm): 20%
- Observed efficacy (Alternaria solani; 0.063 ppm): 13%
- Observed efficacy (Alternaria solani; 0.25 ppm): 14%
- Observed efficacy (Alternaria solani; 1 ppm): 59%
- Observed efficacy (Leptosphaeria nodorum; 0.25 ppm): 0%
- Observed efficacy (Leptosphaeria nodorum; 1 ppm): 14%

Compound: N#Cc1c[nH]cc1-c1cccc2c1OC(F)(F)O2 [Fludioxonil]
- inhibition of growth at 0.004 ppm (Botrytis cinerea; [15]): 12%

Compound: COCC(=O)N(c1c(C)cccc1C)C(C)C(=O)OC (centres unmarked) [Metalaxyl]
- inhibition of growth at 0.25 ppm (Botrytis cinerea; [15]): 0%
- Observed efficacy (Alternaria solani; 16 ppm): 10%
- Observed efficacy (Leptosphaeria nodorum; 0.063 ppm): 0%

Compound: OC(Cc1ccccc1Cl)(Cn1nc[nH]c1=S)C1(Cl)CC1 (centres unmarked) [Prothioconazol, prothioconazole, reference compound]
- Observed efficacy (Pyricularia oryzae; 0.25 ppm): 25%
- Observed efficacy (Septoria tritici; 0.063 ppm): 10%

Compound: O=C(NCCc1ncc(C(F)(F)F)cc1Cl)c1ccccc1C(F)(F)F [Fluopyram]
- Observed efficacy (Septoria tritici; 0.25 ppm): 12%
- Observed efficacy (Septoria tritici; 1 ppm): 32%
